{"source": "the supplement of paper PMC10307832"}
{"compound": "CC(C)C[C@@H](C(=O)N[C@H](C(=O)OC1CCCC1)c1ccccc1)[C@H](O)C(=O)NO [Tosedostat] + CS(=O)(=O)CCNCc1ccc(-c2ccc3ncnc(Nc4ccc(OCc5cccc(F)c5)c(Cl)c4)c3c2)o1 [Lapatinib] (partner 2 µM)", "experiment": "relative viability (nuclei count vs DMSO), 5 days (fraction); higher = more cells survive", "conditions": "first compound 0.02 µM", "outline": "(§1)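 Five library-drug doses in √10 steps were combined with a fixed anchor-drug dose, or a single drug was given alone, by pin tool to lung cancer cell lines in 1536-well plates the day after seeding. Nuclei were stained and counted after 5 days. Relative viability is the nuclei count in treated wells over that in vehicle wells, taken as the median of duplicate plates.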"}
{"cell line": "NCI-H596", "relative viability": 1.21}
{"cell line": "NCI-H1355", "relative viability": 1.02}
{"cell line": "SW 1573", "relative viability": 1.18}
{"cell line": "NCI-H727", "relative viability": 1.11}
{"cell line": "NCI-H2405", "relative viability": 1.43}
{"cell line": "EMC-BAC-2", "relative viability": 0.894}
{"cell line": "NCI-H23", "relative viability": 1.23}
{"cell line": "Calu-6", "relative viability": 1.33}
{"cell line": "HCC-366", "relative viability": 1.12}
{"cell line": "NCI-H1755", "relative viability": 1.1}
{"cell line": "NCI-H838", "relative viability": 0.93}
{"cell line": "LK-2", "relative viability": 0.958}
{"cell line": "NCI-H2347", "relative viability": 1.12}
{"cell line": "SK-MES-1", "relative viability": 0.41}
{"cell line": "H3255", "relative viability": 0.262}
{"cell line": "IA-LM", "relative viability": 0.885}
{"cell line": "NCI-H2170", "relative viability": 0.25}
{"cell line": "A549", "relative viability": 1}
{"cell line": "NCI-H1395", "relative viability": 1.1}
{"cell line": "NCI-H1299", "relative viability": 1.02}
{"cell line": "NCI-H1793", "relative viability": 0.579}
{"cell line": "NCI-H1650", "relative viability": 0.983}
{"compound": "CC(C)C[C@@H](C(=O)N[C@H](C(=O)OC1CCCC1)c1ccccc1)[C@H](O)C(=O)NO [Tosedostat] + CS(=O)(=O)CCNCc1ccc(-c2ccc3ncnc(Nc4ccc(OCc5cccc(F)c5)c(Cl)c4)c3c2)o1 [Lapatinib] (partner 2 µM)", "experiment": "relative viability (nuclei count vs DMSO), 5 days (fraction); higher = more cells survive", "conditions": "first compound 0.06325 µM", "outline": "as §1"}
{"cell line": "SK-LU-1", "relative viability": 0.774}
{"cell line": "NCI-H1703", "relative viability": 1}
{"cell line": "EBC-1", "relative viability": 0.245}
{"cell line": "NCI-H1792", "relative viability": 1.04}
{"cell line": "NCI-H2087", "relative viability": 1.1}
{"cell line": "NCI-H596", "relative viability": 1.16}
{"cell line": "NCI-H1355", "relative viability": 1.03}
{"cell line": "SW 1573", "relative viability": 1.12}
{"cell line": "NCI-H727", "relative viability": 0.589}
{"cell line": "NCI-H2405", "relative viability": 1.06}
{"cell line": "EMC-BAC-2", "relative viability": 0.888}
{"cell line": "NCI-H23", "relative viability": 1.06}
{"cell line": "Calu-6", "relative viability": 1.04}
{"cell line": "HCC-366", "relative viability": 0.954}
{"cell line": "NCI-H1755", "relative viability": 1.08}
{"cell line": "NCI-H838", "relative viability": 0.914}
{"cell line": "LK-2", "relative viability": 0.971}
{"cell line": "NCI-H2347", "relative viability": 1.02}
{"cell line": "SK-MES-1", "relative viability": 0.482}
{"cell line": "H3255", "relative viability": 0.227}
{"cell line": "IA-LM", "relative viability": 0.925}
{"cell line": "NCI-H2170", "relative viability": 0.258}
{"cell line": "A549", "relative viability": 1.07}
{"cell line": "NCI-H1395", "relative viability": 0.944}
{"cell line": "NCI-H1299", "relative viability": 0.954}
{"cell line": "NCI-H1793", "relative viability": 0.73}
{"cell line": "NCI-H1650", "relative viability": 0.828}
{"compound": "CC(C)C[C@@H](C(=O)N[C@H](C(=O)OC1CCCC1)c1ccccc1)[C@H](O)C(=O)NO [Tosedostat] + CS(=O)(=O)CCNCc1ccc(-c2ccc3ncnc(Nc4ccc(OCc5cccc(F)c5)c(Cl)c4)c3c2)o1 [Lapatinib] (partner 2 µM)", "experiment": "relative viability (nuclei count vs DMSO), 5 days (fraction); higher = more cells survive", "conditions": "first compound 0.2 µM", "outline": "as §1"}
{"cell line": "SK-LU-1", "relative viability": 0.7}
{"cell line": "NCI-H1703", "relative viability": 1.02}
{"cell line": "EBC-1", "relative viability": 0.195}
{"cell line": "NCI-H1792", "relative viability": 0.878}
{"cell line": "NCI-H2087", "relative viability": 1.1}
{"cell line": "NCI-H596", "relative viability": 1}
{"cell line": "NCI-H1355", "relative viability": 0.88}
{"cell line": "SW 1573", "relative viability": 1.19}
{"cell line": "NCI-H727", "relative viability": 0.631}
{"cell line": "NCI-H2405", "relative viability": 0.999}
{"cell line": "EMC-BAC-2", "relative viability": 0.894}
{"cell line": "NCI-H23", "relative viability": 0.958}
{"cell line": "Calu-6", "relative viability": 0.951}
{"cell line": "HCC-366", "relative viability": 1}
{"cell line": "NCI-H1755", "relative viability": 1.09}
{"cell line": "NCI-H838", "relative viability": 0.961}
{"cell line": "LK-2", "relative viability": 0.892}
{"cell line": "NCI-H2347", "relative viability": 1.03}
{"cell line": "SK-MES-1", "relative viability": 0.473}
{"cell line": "H3255", "relative viability": 0.224}
{"cell line": "IA-LM", "relative viability": 0.61}
{"cell line": "NCI-H2170", "relative viability": 0.273}
{"cell line": "A549", "relative viability": 0.957}
{"cell line": "NCI-H1395", "relative viability": 0.877}
{"cell line": "NCI-H1299", "relative viability": 0.96}
{"cell line": "NCI-H1793", "relative viability": 0.874}
{"cell line": "NCI-H1650", "relative viability": 0.863}
{"compound": "CC(C)C[C@@H](C(=O)N[C@H](C(=O)OC1CCCC1)c1ccccc1)[C@H](O)C(=O)NO [Tosedostat] + CS(=O)(=O)CCNCc1ccc(-c2ccc3ncnc(Nc4ccc(OCc5cccc(F)c5)c(Cl)c4)c3c2)o1 [Lapatinib] (partner 2 µM)", "experiment": "relative viability (nuclei count vs DMSO), 5 days (fraction); higher = more cells survive", "conditions": "first compound 0.6325 µM", "outline": "as §1"}
{"cell line": "SK-LU-1", "relative viability": 0.709}
{"cell line": "NCI-H1703", "relative viability": 0.743}
{"cell line": "EBC-1", "relative viability": 0.22}
{"cell line": "NCI-H1792", "relative viability": 0.863}
{"cell line": "NCI-H2087", "relative viability": 0.907}
{"cell line": "NCI-H596", "relative viability": 1.22}
{"cell line": "NCI-H1355", "relative viability": 0.913}
{"cell line": "SW 1573", "relative viability": 1.05}
{"cell line": "NCI-H727", "relative viability": 0.657}
{"cell line": "NCI-H2405", "relative viability": 1.02}
{"cell line": "EMC-BAC-2", "relative viability": 0.853}
{"cell line": "NCI-H23", "relative viability": 1}
{"cell line": "Calu-6", "relative viability": 0.899}
{"cell line": "HCC-366", "relative viability": 0.993}
{"cell line": "NCI-H1755", "relative viability": 1.1}
{"cell line": "NCI-H838", "relative viability": 0.904}
{"cell line": "LK-2", "relative viability": 0.995}
{"cell line": "NCI-H2347", "relative viability": 0.892}
{"cell line": "SK-MES-1", "relative viability": 0.472}
{"cell line": "H3255", "relative viability": 0.255}
{"cell line": "IA-LM", "relative viability": 0.746}
{"cell line": "NCI-H2170", "relative viability": 0.289}
{"cell line": "A549", "relative viability": 0.925}
{"cell line": "NCI-H1395", "relative viability": 0.862}
{"cell line": "NCI-H1299", "relative viability": 0.951}
{"cell line": "NCI-H1793", "relative viability": 0.82}
{"cell line": "NCI-H1650", "relative viability": 0.997}
{"compound": "CC(C)C[C@@H](C(=O)N[C@H](C(=O)OC1CCCC1)c1ccccc1)[C@H](O)C(=O)NO [Tosedostat] + CS(=O)(=O)CCNCc1ccc(-c2ccc3ncnc(Nc4ccc(OCc5cccc(F)c5)c(Cl)c4)c3c2)o1 [Lapatinib] (partner 2 µM)", "experiment": "relative viability (nuclei count vs DMSO), 5 days (fraction); higher = more cells survive", "conditions": "first compound 2 µM", "outline": "as §1"}
{"cell line": "SK-LU-1", "relative viability": 0.739}
{"cell line": "NCI-H1703", "relative viability": 0.943}
{"cell line": "EBC-1", "relative viability": 0.17}
{"cell line": "NCI-H1792", "relative viability": 0.823}
{"cell line": "NCI-H2087", "relative viability": 0.844}
{"cell line": "NCI-H596", "relative viability": 1.07}
{"cell line": "NCI-H1355", "relative viability": 0.915}
{"cell line": "SW 1573", "relative viability": 1.05}
{"cell line": "NCI-H727", "relative viability": 0.575}
{"cell line": "NCI-H2405", "relative viability": 0.847}
{"cell line": "EMC-BAC-2", "relative viability": 0.955}
{"cell line": "NCI-H23", "relative viability": 0.628}
{"cell line": "Calu-6", "relative viability": 0.864}
{"cell line": "HCC-366", "relative viability": 0.997}
{"cell line": "NCI-H1755", "relative viability": 1.13}
{"cell line": "NCI-H838", "relative viability": 1.24}
{"cell line": "LK-2", "relative viability": 1.2}
{"cell line": "NCI-H2347", "relative viability": 0.888}
{"cell line": "SK-MES-1", "relative viability": 0.472}
{"cell line": "H3255", "relative viability": 0.253}
{"cell line": "IA-LM", "relative viability": 0.645}
{"cell line": "NCI-H2170", "relative viability": 0.276}
{"cell line": "A549", "relative viability": 0.939}
{"cell line": "NCI-H1395", "relative viability": 0.674}
{"cell line": "NCI-H1299", "relative viability": 0.892}
{"cell line": "NCI-H1793", "relative viability": 0.618}
{"cell line": "NCI-H1650", "relative viability": 0.918}
